This is an account of results in patent US10975056B2 (GlaxoSmithKline Intellectual Property Development Limited, priority 2016, dated 2021).

Molecules are shown by their SMILES. Read-outs that look alike come from different tables or passages of the source.

For assay [1], the system named is patients with sickle cell anemia, sickle cell disease and beta-thalassemia. As to conditions: limited set of clinical studies; cited from earlier work.
Assay [2] concerns erythroid progenitor cells. The settings on record: cited from earlier work.
For a further assay, the target named is DNMT3B (Homo sapiens (Human), UniProt Q9UBC3). Briefly: DNMT3B breaklight assay. It counts as biochemical. As to conditions: read-out: DNMT3B Breaklight IC50.
The test system of assay [3] is erythroid progenitor cells (EPCs). Briefly: Fetal hemoglobin (HbF) ELISA in day 7 erythroid progenitor cells.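 Note: for fetal hemoglobin induction normalized to vehicle-treated cells.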 The settings on record: Homo sapiens, Erythroid progenitor cell, HbF ELISA, day 7 EPCs, 5 days; read-out: EPC ELISA (pEC50 category) (converted). It counts as cell-based, human. In a few lines:
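Day 7 EPCs from human bone marrow CD34+ cells were plated at 1,000 cells/well in media with 3 U/mL rhEPO. They were exposed to a 22-point dilution ([…]) for 5 days at 37 °C. Lysate HbF was measured by sandwich ELISA (OD450) and normalized to DMSO control wells.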

The next assay concerns MV-4-11 AML cells. Briefly: MV-4-11 cell proliferation assay (CellTiter-Glo, 6 days). It counts as cell-based. The settings on record: Homo sapiens, MV4-11, 144 h; 6 days treatment; binning as pXC50; read-out: MV4-11 Anti-proliferative activity (EC50 category). As to the method:
MV-4-11 Anti-Proliferative Activity (pEC50 Category)
Cell proliferation assay. Optimal cell seeding density was determined empirically for MV-4-11 AML cells by examining the growth of a wide range of seeding densities in a 384-well format to identify conditions that permitted maximal and continued proliferation for 6 days. MV-4-11 cells were plated in duplicate plates 24 hours before treatment with a 20-point two-fold dilution series of compound or 0.15% DMSO. Plates were incubated for 6 days at 37° C. in 5% CO2. Cells were then lysed with CellTiter-Glo (CTG) (Promega) and chemiluminescent signal was detected with an appropriate microplate reader. In addition, an untreated plate of cells was harvested at the time of compound addition (T0) to quantify the initial cell density. CTG values obtained after 6 days of treatment were expressed as a percent of the T0 value and plotted against compound concentration. Data were fit with a four parameter equation to generate a concentration response curve from which growth IC50 values were calculated.

The next assay deals with DNMT1 (Homo sapiens, UniProt P26358). In words: DNMT1 biochemical activity, breaklight assay and/or SPA assay.
Chain of DNMT1 (P26358 whole entry, looked up): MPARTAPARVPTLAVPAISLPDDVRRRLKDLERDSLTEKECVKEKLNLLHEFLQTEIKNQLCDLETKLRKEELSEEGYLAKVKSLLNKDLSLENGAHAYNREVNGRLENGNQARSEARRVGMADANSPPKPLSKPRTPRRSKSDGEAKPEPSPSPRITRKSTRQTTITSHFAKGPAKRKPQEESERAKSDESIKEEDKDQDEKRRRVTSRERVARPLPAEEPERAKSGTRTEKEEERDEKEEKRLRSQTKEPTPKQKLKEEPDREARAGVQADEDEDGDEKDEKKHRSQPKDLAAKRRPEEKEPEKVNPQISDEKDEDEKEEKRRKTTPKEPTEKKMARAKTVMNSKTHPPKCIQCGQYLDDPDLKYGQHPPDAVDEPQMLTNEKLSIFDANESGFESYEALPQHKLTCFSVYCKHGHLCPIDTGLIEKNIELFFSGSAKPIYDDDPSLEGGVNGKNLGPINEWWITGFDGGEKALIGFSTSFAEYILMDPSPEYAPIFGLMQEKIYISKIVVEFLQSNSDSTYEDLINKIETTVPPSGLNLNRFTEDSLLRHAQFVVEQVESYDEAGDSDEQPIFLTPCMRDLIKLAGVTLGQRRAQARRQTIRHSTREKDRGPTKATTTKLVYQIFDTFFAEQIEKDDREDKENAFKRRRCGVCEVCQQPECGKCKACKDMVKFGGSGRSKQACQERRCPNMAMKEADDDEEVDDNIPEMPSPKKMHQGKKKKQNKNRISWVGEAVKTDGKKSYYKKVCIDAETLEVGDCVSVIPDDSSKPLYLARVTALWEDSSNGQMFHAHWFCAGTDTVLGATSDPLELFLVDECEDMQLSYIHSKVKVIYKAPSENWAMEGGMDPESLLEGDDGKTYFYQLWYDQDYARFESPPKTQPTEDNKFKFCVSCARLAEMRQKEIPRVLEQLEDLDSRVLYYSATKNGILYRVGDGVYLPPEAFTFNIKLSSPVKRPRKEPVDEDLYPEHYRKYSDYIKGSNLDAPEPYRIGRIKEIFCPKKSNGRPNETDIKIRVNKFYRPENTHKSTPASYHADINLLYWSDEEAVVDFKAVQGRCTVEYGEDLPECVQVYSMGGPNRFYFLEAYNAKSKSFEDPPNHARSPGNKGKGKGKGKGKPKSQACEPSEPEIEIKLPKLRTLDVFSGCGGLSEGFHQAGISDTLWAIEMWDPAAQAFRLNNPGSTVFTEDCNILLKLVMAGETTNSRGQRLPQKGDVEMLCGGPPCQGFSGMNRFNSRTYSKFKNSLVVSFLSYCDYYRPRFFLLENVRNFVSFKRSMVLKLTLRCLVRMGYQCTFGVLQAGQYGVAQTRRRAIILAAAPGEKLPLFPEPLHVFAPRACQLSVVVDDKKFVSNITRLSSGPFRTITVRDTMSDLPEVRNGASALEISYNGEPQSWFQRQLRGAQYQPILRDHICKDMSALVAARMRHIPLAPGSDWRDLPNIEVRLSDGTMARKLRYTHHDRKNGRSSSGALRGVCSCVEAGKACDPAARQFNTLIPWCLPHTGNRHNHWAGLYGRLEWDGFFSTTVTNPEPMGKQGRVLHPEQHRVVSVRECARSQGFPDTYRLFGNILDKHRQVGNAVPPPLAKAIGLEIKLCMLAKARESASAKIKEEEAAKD
The target in another assay is human DNMT3a/3l (Homo sapiens (Human), UniProt Q9Y6K1). In words: DNMT3a/3l breaklight assay. Type of assay: biochemical. As to conditions: read-out: DNMT3A Breaklight IC50. As to the method: DNMT3a/3l Breakliqht Assay
Chain of human DNMT3a/3l (Q9Y6K1 whole entry, looked up): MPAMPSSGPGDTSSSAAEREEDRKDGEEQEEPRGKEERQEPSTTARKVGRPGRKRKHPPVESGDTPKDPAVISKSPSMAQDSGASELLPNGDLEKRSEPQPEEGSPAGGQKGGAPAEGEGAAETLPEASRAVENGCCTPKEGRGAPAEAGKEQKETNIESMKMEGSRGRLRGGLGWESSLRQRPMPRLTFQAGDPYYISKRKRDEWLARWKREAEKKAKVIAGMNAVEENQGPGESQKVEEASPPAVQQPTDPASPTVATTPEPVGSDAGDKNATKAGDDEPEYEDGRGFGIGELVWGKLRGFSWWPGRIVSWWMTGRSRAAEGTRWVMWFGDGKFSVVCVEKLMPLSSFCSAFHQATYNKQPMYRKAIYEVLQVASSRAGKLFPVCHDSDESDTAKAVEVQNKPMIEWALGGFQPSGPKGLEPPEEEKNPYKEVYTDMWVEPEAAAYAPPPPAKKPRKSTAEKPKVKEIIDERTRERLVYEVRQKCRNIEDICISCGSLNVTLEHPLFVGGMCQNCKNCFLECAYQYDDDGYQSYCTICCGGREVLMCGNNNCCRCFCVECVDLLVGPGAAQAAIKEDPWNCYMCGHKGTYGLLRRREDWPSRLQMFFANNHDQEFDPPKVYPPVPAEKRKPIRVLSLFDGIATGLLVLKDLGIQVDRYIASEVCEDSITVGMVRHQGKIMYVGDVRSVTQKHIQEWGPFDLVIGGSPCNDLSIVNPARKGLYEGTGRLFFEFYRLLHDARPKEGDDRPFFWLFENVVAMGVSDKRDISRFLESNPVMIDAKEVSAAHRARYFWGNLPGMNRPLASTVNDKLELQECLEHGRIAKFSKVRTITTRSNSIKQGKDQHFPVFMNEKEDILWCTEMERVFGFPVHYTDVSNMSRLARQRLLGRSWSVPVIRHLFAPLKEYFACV
Chain of human DNMT3a/3l (Q9UJW3 whole entry partner, looked up): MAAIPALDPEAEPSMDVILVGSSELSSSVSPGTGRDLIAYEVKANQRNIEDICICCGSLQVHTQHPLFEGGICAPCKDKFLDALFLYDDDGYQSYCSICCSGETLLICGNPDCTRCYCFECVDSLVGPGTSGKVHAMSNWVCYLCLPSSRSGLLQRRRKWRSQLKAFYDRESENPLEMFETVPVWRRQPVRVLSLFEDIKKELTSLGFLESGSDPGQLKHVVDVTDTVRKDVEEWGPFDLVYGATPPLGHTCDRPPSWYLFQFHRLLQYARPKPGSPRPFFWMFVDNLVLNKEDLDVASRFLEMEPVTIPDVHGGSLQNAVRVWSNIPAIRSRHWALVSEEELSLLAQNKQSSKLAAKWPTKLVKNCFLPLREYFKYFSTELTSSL
DNMT3a/3l breaklight in vitro assays were conducted in a total volume of 50 μl in a standard 384 well format, using black non-binding surface microplates (Corning #3575). […] Negative control wells used 5 μl of DNMT3a/3l and 5 μl of oligonucleotide but also included 200 μM SAH. All reagents were made up in 1× assay buffer (20 mM Tris pH 7.4, 100 mM NaCl, 1.5 mM EDTA, 0.1 mM MgCl2, 1 mM CHAPS and 1 mM DTT). The reaction was incubated at 37° C. for 90 min and then stopped with the addition of 40 μl detection reagent. Detection reagent, made up in 1× Gla assay buffer (20 mM Tris pH 8.0, 80 mM NaCl, 0.75 mM MgCl2, 0.01% Triton X100 and 1 mM DTT) has a final concentration of 200 μM SAH (Sigma #A9384) and 0.0008 units/μl Gla1 restriction endonuclease (Sibenzyme #E494). Following addition of the detection reagent the plate was incubated in the dark at room temperature for 5 hr. Fluorescence intensity was then measured on the PHERAstar FS (BMG Labtech) at Ex 485 nm and Em 520 nm, with a gain of 400 and an integration time of 100 ms.

Setting [4] is: binned activity in either the breaklight or the SPA assay, read-out: DNMT1 BioChemical (pIC50 category) (converted).
Where [5] appears, read: binned activity in either the breaklight or the SPA assay.

Turning to `Nc1ncn([C@@H]2O[C@H](CO)[C@@H](O)[C@H]2O)c(=O)n1` [5-azacytidine], the “fetal hemoglobin in patients” value in assay [1] is “caused increases in fetal hemoglobin”. For the same compound, the “induction of fetal hemoglobin” value in assay [2] is recorded as “known inducers of fetal hemoglobin”.
For the compound `Nc1ncn([C@H]2C[C@H](O)[C@@H](CO)O2)c(=O)n1` [5-aza-2′-deoxycytidine (decitabine), 5-aza-2′-deoxycytidine], in assay [1], the “fetal hemoglobin in patients” value was “caused increases in fetal hemoglobin”. The “induction of fetal hemoglobin” value in assay [2] is “known inducers of fetal hemoglobin”.
On to `CCc1c(C#N)c(S[C@@H](C(N)=O)c2ccccc2)nc(N(C)C)c1C#N` [Example 64, (R)-2-((3,5-dicyano-6-(dimethylamino)-4-ethylpyridin-2-yl)thio)-2-phenylacetamide], for which, on DNMT3B, the IC50 is over 500 µM. The EC50 in assay [3] was under 0.316 µM; in the assay with MV-4-11 AML cells, 0.316 to 1 µM.
In the case of `N#Cc1c(SC(C(N)=O)c2ccccc2)nc(N2CCOCC2)c(C#N)c1C1CC1` (stereo not shown) [Example 130, 2-[(3,5-Dicyano-4-cyclopropyl-6-morpholino-2-pyridyl)sulfanyl]-2-phenyl-acetamide], the IC50 on DNMT3B is over 500 µM; on DNMT1 (setting [4]), 0.316 to 1 µM; at DNMT1 (breaklight assay and/or SPA assay, repeated experimental runs, read-out: average pIC50 against DNMT1 (converted)) it was 0.316 to 1 µM; at human DNMT3a/3l, over 500 µM. Further, in the assay with MV-4-11 AML cells, the EC50 lay in the range of 1 to 31.6 µM.
As to `CCc1c(C#N)c(N[C@@H](C(N)=O)c2ccccc2)nc(N2CCCN(CCO)CC2)c1C#N` [Example 114, (2R)-2-({3,5-Dicyano-4-ethyl-6-[4-(2-hydroxyethyl)-1,4-diazepan-1-yl]pyridin-2-yl}amino)-2-phenylacetamide], the IC50 on DNMT1 (setting [4]) is 0.316 to 1 µM. Also, the EC50 (in assay [3]; with MV-4-11 AML cells) was 1 to 31.6 µM each time.
As to `CCc1c(C#N)c(SC(C(N)=O)c2ccccc2)nc(N2CCC(C3CCNCC3)CC2)c1C#N` (stereo not shown) [Example 122, 2-((6-([4,4′-Bipiperidin]-1-yl)-3,5-dicyano-4-ethylpyridin-2-yl)thio)-2-phenylacetamide; 2,2,2-trifluoroacetic acid], at DNMT1 (setting [5]), the “DNMT1 BioChemical (pIC50 category)” value is “D (Category D: ≥6.5)”. Besides, the “average pIC50 against DNMT1” value at DNMT1 (breaklight assay and/or SPA assay, repeated experimental runs) is over 6.5. Further, the EC50 in assay [3] is under 0.316 µM; in the assay on MV-4-11 AML cells, 0.316 to 1 µM.
`N#Cc1c(SC(C(N)=O)c2ccncc2)nc(N2CCCNCC2)c(C#N)c1C1CC1` (stereo not shown) [Example 31, 2-((3,5-dicyano-4-cyclopropyl-6-(1,4-diazepan-1-yl)pyridin-2-yl)thio)-2-(pyridin-4-yl)acetamide]: the IC50 on DNMT1 (setting [4]) was 0.316 to 1 µM. The EC50 in assay [3] is over 31.6 µM; with MV-4-11 AML cells it was 1 to 31.6 µM.
As for `N#Cc1c(SC(C(N)=O)c2ccccc2)nc(N2CCCC(O)C2)c(C#N)c1C1CC1` (stereo not shown) [Example 164, 2-(3,5-Dicyano-4-cyclopropyl-6-(3-hydroxypiperidin-1-yl)pyridin-2-ylthio)-2-phenylacetamide], the IC50 on DNMT1 (setting [4]) is 0.316 to 1 µM. Further, the EC50 in assay [3] was 0.316 to 1 µM; in the assay with MV-4-11 AML cells it was 1 to 31.6 µM.
As for `CN(C)C1CCCN(c2nc(SC(C(N)=O)c3ccccc3)c(C#N)c(C3CC3)c2C#N)C1` (stereo not shown) [Example 18, 2-((3,5-Dicyano-4-cyclopropyl-6-(3-(dimethylamino)piperidin-1-yl)pyridin-2-yl)thio)-2-phenylacetamide], the “DNMT1 BioChemical (pIC50 category)” value on DNMT1 (setting [5]) is “D (Category D: ≥6.5)”. For the same compound, the EC50 in assay [3] is under 0.316 µM; with MV-4-11 AML cells it was 1 to 31.6 µM.
For the compound `CCc1c(C#N)c(SC(C(N)=O)c2ccccc2)nc(N2CCN(CCN)CC2)c1C#N` (stereo not shown) [Example 123, 2-((6-(4-(2-Aminoethyl)piperazin-1-yl)-3,5-dicyano-4-ethylpyridin-2-yl)thio)-2-phenylacetamide], the “DNMT1 BioChemical (pIC50 category)” value at DNMT1 (setting [5]) was “D (Category D: ≥6.5)”. In addition, the EC50 is under 0.316 µM in assay [3] and 1 to 31.6 µM in the assay with MV-4-11 AML cells.
